Test results reported in the supplement of paper PMC10307832.

How the values were obtained:
Assay in all cases: relative viability (nuclei count vs DMSO), 5 days (fraction); higher = more cells survive
Mirin + Vorinostat = compound: N=C1NC(=O)/C(=C/c2ccc(O)cc2)S1 [Mirin] + O=C(CCCCCCC(=O)Nc1ccccc1)NO [Vorinostat] (partner 1 µM)
Outline: (§1)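 Cells from lung cancer lines were seeded into 1536-well plates and, one day later, dosed by pin tool. Treatments were either a single drug or a fixed dose of an anchor drug with five library-drug doses (not always all listed) in √10 steps. After 5 days, nuclei were stained in a one-step fixation (final 0.05% Triton X-100, 1% formaldehyde, 1 ug/ml Hoechst) and counted on 4× images, and relative viability is the treated-to-vehicle nuclei ratio, as the median of duplicate plates.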

[1] = compound: CCn1c(-c2nonc2N)nc2cnc(Oc3cccc(NC(=O)c4ccc(OCCN5CCOCC5)cc4)c3)cc21 + CC(=O)c1c(C)c2cnc(Nc3ccc(N4CCNCC4)cn3)nc2n(C2CCCC2)c1=O [Palbociclib] (partner 0.5 µM)
Outline: as §1

[2] = compound: CCC1=CN=CN=C1N2CCN(CC2)CC3=NC4=C(N3)C=C(C=C4)C(F)(F)F + C[C@@H](Oc1cc(-c2cnn(C3CCNCC3)c2)cnc1N)c1c(Cl)ccc(F)c1Cl [Crizotinib] (partner 1 µM)
Outline: as §1

Cell Line | relative viability (Mirin + Vorinostat; first compound 0.25 µM) | relative viability (Mirin + Vorinostat; first compound 0.7906 µM) | relative viability (Mirin + Vorinostat; first compound 2.5 µM) | relative viability (Mirin + Vorinostat; first compound 7.906 µM) | relative viability (Mirin + Vorinostat; first compound 25 µM) | relative viability ([1]; first compound 0.04 µM) | relative viability ([1]; first compound 0.1265 µM) | relative viability ([1]; first compound 0.4 µM) | relative viability ([1]; first compound 1.265 µM) | relative viability ([1]; first compound 4 µM) | relative viability ([2]; first compound 0.04 µM) | relative viability ([2]; first compound 0.1265 µM) | relative viability ([2]; first compound 0.4 µM) | relative viability ([2]; first compound 1.265 µM) | relative viability ([2]; first compound 4 µM)
NCI-H441 | 0.805 | 0.933 | 0.806 | 0.752 | 0.896 | 0.26 | 0.234 | 0.157 | 0.226 | 0.25 | 0.742 | 0.627 | 0.789 | 0.859 | 1.04
COR-L 105 | 0.822 | 1.01 | 0.983 | 0.758 | 0.655 | 0.407 | 0.402 | 0.344 | 0.36 | 0.336 | 0.861 | 0.795 | 0.972 | 0.922 | 1.24
NCI-H1993 | 1.07 | 0.627 | 0.89 | 0.947 | 0.737 | 0.479 | 0.659 | 0.642 | 0.695 | 0.626 | 0.835 | 0.813 | 0.883 | 0.873 | 0.856
NCI-H1437 | 0.88 | 0.955 | 0.875 | 0.896 | 1.02 | 0.355 | 0.367 | 0.389 | 0.279 | 0.331 | 0.969 | 0.799 | 0.964 | 0.903 | 0.752
PC-14 | 0.798 | 0.638 | 0.729 | 0.719 | 0.746 | 0.578 | 0.432 | 0.466 | 0.486 | 0.414 | 1.02 | 0.781 | 0.976 | 0.915 | 1.06
NCI-H1666 | 1.01 | 1.23 | 1.01 | 0.928 | 0.938 | 0.635 | 0.64 | 0.613 | 0.57 | 0.538 | 0.974 | 0.916 | 1.1 | 0.849 | 1.03
NCI-H1944 | 0.511 | 0.494 | 0.649 | 0.449 | 0.511 | 0.269 | 0.377 | 0.342 | 0.329 | 0.38 | 1.21 | 0.988 | 1.13 | – | 1.23
NCI-H2023 | 0.683 | 0.724 | 0.653 | 0.628 | 0.595 | 0.415 | 0.392 | 0.337 | 0.215 | 0.202 | 0.712 | 0.655 | 0.713 | 0.713 | 1.07
EBC-1 | – | – | – | – | – | – | – | – | – | – | 0.186 | 0.169 | 0.218 | 0.196 | 0.169
NCI-H1755 | 0.761 | 0.62 | 0.863 | 0.59 | 0.824 | 0.457 | 0.46 | 0.397 | 0.454 | 0.424 | 0.963 | 0.809 | 0.948 | 0.89 | 1.06
NCI-H2347 | 0.569 | 0.645 | 0.641 | 0.494 | 0.66 | 0.432 | 0.455 | 0.385 | 0.376 | 0.381 | 0.776 | 0.684 | 0.759 | 0.601 | 0.749
ABC-1 | 1.29 | 1.12 | 1.36 | 0.871 | 0.772 | 0.647 | 0.941 | 0.635 | 0.332 | 0.393 | 1.09 | 1.04 | 1.38 | 1.11 | 0.852
201T | 1.02 | 1.14 | 0.956 | 1.07 | 1.18 | 0.359 | 0.366 | 0.368 | 0.354 | 0.345 | 0.985 | 0.993 | 1.03 | 1.02 | 1.12
NCI-H1734 | 0.797 | 0.688 | 0.783 | 0.693 | 0.735 | 0.335 | 0.365 | 0.293 | 0.319 | 0.267 | 0.655 | 0.679 | 0.751 | – | 1.12
NCI-H596 | 0.727 | 0.474 | 0.641 | 0.758 | 0.589 | – | – | – | – | – | 0.91 | 1.06 | 0.971 | 1 | 1.14
NCI-H1650 | 0.497 | 0.656 | 0.51 | 0.482 | 0.495 | 0.466 | 0.32 | 0.294 | 0.335 | 0.328 | 0.942 | 0.853 | 1.03 | 1.06 | 1.42
NCI-H1355 | 0.608 | 0.696 | 0.683 | 0.605 | 0.699 | 0.321 | 0.411 | 0.411 | 0.397 | 0.374 | 1.07 | 1.01 | 1 | 1.14 | 1.15
NCI-H1915 | 0.527 | 0.498 | 0.558 | 0.341 | 0.52 | 0.522 | 0.524 | 0.516 | 0.386 | 0.376 | 0.916 | 0.878 | 0.85 | 0.934 | 1.03
BEN | 0.473 | 0.58 | 0.6 | 0.555 | 0.542 | 0.473 | 0.469 | 0.472 | 0.77 | 0.441 | 0.924 | 0.868 | 0.963 | 0.532 | 0.662
NCI-H1563 | – | – | – | – | – | – | – | – | – | – | 0.822 | 0.847 | 0.928 | 0.962 | 1.09
NCI-H1648 | 0.421 | – | 0.601 | 0.424 | 0.299 | 0.277 | 0.245 | 0.231 | 0.474 | 0.388 | – | – | – | – | –
NCI-H1299 | – | – | – | – | – | – | – | – | – | – | 0.935 | 0.953 | 0.953 | 0.96 | 0.981
A549 | – | – | – | – | – | – | – | – | – | – | 0.734 | 0.801 | 0.816 | 0.829 | 0.827
NCI-H1793 | 0.907 | – | 0.672 | 0.949 | 0.832 | 0.263 | 0.304 | 0.3 | 0.283 | 0.251 | – | – | – | – | –
NCI-H1703 | – | – | – | – | – | – | – | – | – | – | 1.07 | 0.697 | 0.775 | 0.858 | 1.23
NCI-H1395 | 0.809 | – | 0.822 | 0.811 | 0.938 | 0.562 | 0.558 | 0.565 | 0.457 | 0.482 | – | – | – | – | –
NCI-H522 | 1.04 | 1.1 | 0.89 | 0.692 | 0.695 | 1.18 | 1.13 | 0.853 | 0.909 | 0.827 | – | – | – | – | –
Calu-6 | – | – | – | – | – | – | – | – | – | – | 0.742 | 0.707 | 0.832 | 0.905 | 0.982
